Among the data in paper PMC9396657, “Directed Evolution of (R)-2-Hydroxyglutarate Dehydrogenase Improves 2-Oxoadipate Reduction by 2 Orders of Magnitude” (ACS Synthetic Biology, 2022) are Km values, retold here.

What all share (assay): NADH oxidation at […] nm, initial rates
What all share (format): biochemical

Test [1] addresses T1, Hgdh (Acidaminococcus fermentans, UniProt D2RJU7, V11K/V11M/A206V/A214V/E304K, form not given).
T1 construct: full length, codon-optimized, expressed in E. coli BL21(DE3) from pET-28b, extra Ala after start Met, C-terminal thrombin site and His tag (kept), homodimer of 75 kDa
To be noted: 0.25 mM NADH, 50 mM phosphate pH 8, 25 °C, apparent, residue 11 contradictory: V11K, A2 is the extra cloning Ala.

Test [2] concerns the target T2, Hgdh (Acidaminococcus fermentans, UniProt D2RJU7, V11K/V11M/A206V/A214D/K307I, form not given).
T2 construct: full length, codon-optimized, expressed in E. coli BL21(DE3) from pET-28b, extra Ala after start Met, C-terminal thrombin site and His tag (kept), homodimer of 75 kDa
Conditions: 0.25 mM NADH, 50 mM phosphate pH 8, 25 °C, apparent, residue 11 contradictory: V11K, A2 is the extra cloning Ala.

Test [3] addresses T3, Hgdh (Acidaminococcus fermentans, UniProt D2RJU7, V11K/V11M/A206V/A214V/V312I, form not given).
T3 construct: full length, codon-optimized, expressed in E. coli BL21(DE3) from pET-28b, extra Ala after start Met, C-terminal thrombin site and His tag (kept), homodimer of 75 kDa
Conditions: 0.25 mM NADH, 50 mM phosphate pH 8, 25 °C, apparent, residue 11 contradictory: V11K, A2 is the extra cloning Ala.

In test [4] the target is T4, Hgdh (Acidaminococcus fermentans, UniProt D2RJU7).
T4 construct: full length, codon-optimized, expressed in E. coli BL21(DE3) from pET-28b, extra Ala after start Met, C-terminal thrombin site and His tag (kept), homodimer of 75 kDa
T4 sequence (D2RJU7 whole entry): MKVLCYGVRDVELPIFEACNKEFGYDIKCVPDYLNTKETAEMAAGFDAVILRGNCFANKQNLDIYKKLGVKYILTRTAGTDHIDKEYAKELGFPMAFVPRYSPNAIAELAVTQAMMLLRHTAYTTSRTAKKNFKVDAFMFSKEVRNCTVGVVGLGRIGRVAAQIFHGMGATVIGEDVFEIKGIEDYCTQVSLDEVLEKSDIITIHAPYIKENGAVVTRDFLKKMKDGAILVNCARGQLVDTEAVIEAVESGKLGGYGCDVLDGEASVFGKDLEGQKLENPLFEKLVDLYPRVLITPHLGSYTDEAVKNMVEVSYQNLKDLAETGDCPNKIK
Conditions: 0.25 mM NADH, 50 mM phosphate pH 8, 25 °C; apparent (Km of NADH not determined).

T2 sequence (D2RJU7 whole entry, stated change not applied): as the sequence (D2RJU7 whole entry) above
T3 sequence (D2RJU7 whole entry, stated change not applied): as the sequence (D2RJU7 whole entry) above
T1 sequence (D2RJU7 whole entry, stated change not applied): as the sequence (D2RJU7 whole entry) above

As to `O=C(O)CCCC(=O)C(=O)O` [2-oxoadipate], the Km stood at 4.18 ± 0.2 mM in test [1], 3.05 ± 0.24 mM in test [2], 9.72 ± 0.67 mM in test [3] and 2.96 ± 0.24 mM in test [4].

The Km is the concentration of substrate that gives half-maximal velocity.
